Legend:
Assay type in all cases: in vivo
[1] = tested on: Stellaria media (chickweed); test: Greenhouse postemergence herbicidal effect on STEME
From the text: (§1) Greenhouse Trial Methodology—Evaluation of Postemergence Herbicidal Effect
(§2) Seeds of the desired test plant species were planted in a 90:10% v/v (volume/volume) mixture of PRO-MIX® BX (Premier Tech Horticulture, Quakertown, Pa., USA) and PROFILE® GREENS GRADE™ (Profile Products LLC, Buffalo Grove, Ill., USA) planting mixture, which typically has a pH of 5.2 to 6.2 and an organic matter content of at least 50 percent, in plastic pots with a surface area of 103.2 square centimeters (cm^2). In some aspects or embodiments, to help ensure good germination and healthy plants, a fungicide treatment and/or other chemical or physical treatment was applied. The plants were grown for 7-36 days (d) in a greenhouse with an approximate 14-hour (h) photoperiod which was maintained at about 23° C. during the day and 22° C. during the night. Nutrients and water were added on a regular basis and supplemental lighting was provided with overhead metal halide 1000-Watt lamps as necessary. The plants were employed for testing when they reached the second or third true leaf stage.
(§3) Emulsifiable concentrates of each of each pyridine carboxylate herbicide (Compound A or Compound B) were prepared at 100 grams acid equivalent per liter (g ae/L). The emulsifiable concentrates also included a safener, cloquintocet mexyl, at 120 grams active ingredient per liter (g ai/L). An aliquot of each emulsifiable concentrate was placed in a 25 mL glass vial and diluted with an aqueous mixture of 1.25% (v/v) ACTIROB® B esterified rapeseed oil (Bayer Crop Science, Research Triangle Park, N.C., USA) or MSO® Concentrate with LECI-TECH® methylated soybean oil (Loveland Products, Loveland, Colo., USA) to obtain concentrated stock solutions at the highest application rate for each herbicide, based upon a 12 milliliter (mL) application volume at a rate of 187 liters per hectare (L/ha). The concentrated stock solutions were further diluted with an aqueous mixture of 1.25% v/v ACTIROB® B or MSO® Concentrate with LECI-TECH® to obtain stock solutions at reduced application rates for each herbicide. Spray solutions of the herbicide combinations (Compound A or Compound B plus PROTOX inhibitor herbicide) were prepared by adding weighed amounts or aliquots of the PROTOX inhibitor herbicides to the stock solutions of Compound A or Compound B to form 12-mL spray solutions in two-way combinations. […]
(§4) The treated plants and control plants were placed in a greenhouse as described above and watered by sub-irrigation to prevent wash-off of the test compounds. After 20-22 d, the condition of the test plants as compared with that of the control plants was determined visually and scored on a scale of 0 to 100 percent where 0 corresponds to no injury and 100 corresponds to complete kill.

[2] = tested on: Abutilon theophrasti (velvetleaf); test: Greenhouse postemergence herbicidal effect on ABUTH
From the text: as §1, §2
(§5) Emulsifiable concentrates of each of each pyridine carboxylate herbicide (Compound A or Compound B) were prepared at 100 grams acid equivalent per liter (g ae/L). The emulsifiable concentrates also included a safener, cloquintocet mexyl, at 120 grams active ingredient per liter (g ai/L). […]
as §4

[3] = tested on: Sorghum vulgare (sorghum); test: Greenhouse postemergence herbicidal effect on SORVU
From the text: as §1, §2, §5, §4

[4] = tested on: Veronica hederifolia (ivy-leaved speedwell); test: Greenhouse postemergence herbicidal effect on VERHE
From the text: as §1, §2, §3, §4

[5] = tested on: Matricaria discoidea (pineapple weed); test: Greenhouse postemergence herbicidal effect on MATMT
From the text: as §1, §2, §3, §4

[6] = tested on: Matricaria chamomilla (wild chamomile); test: Greenhouse postemergence herbicidal effect on MATCH
From the text: as §1, §2
(§6) Emulsifiable concentrates of each of each pyridine carboxylate herbicide (Compound A or Compound B) were prepared at 100 grams acid equivalent per liter (g ae/L). The emulsifiable concentrates also included a safener, cloquintocet mexyl, at 120 grams active ingredient per liter (g ai/L). An aliquot of each emulsifiable concentrate was placed in a 25 mL glass vial and diluted with an aqueous mixture of 1.25% (v/v) ACTIROB® B esterified rapeseed oil (Bayer Crop Science, Research Triangle Park, N.C., USA) or MSO® Concentrate with LECI-TECH® methylated soybean oil (Loveland Products, Loveland, Colo., USA) to obtain concentrated stock solutions at the highest application rate for each herbicide, based upon a 12 milliliter (mL) application volume at a rate of 187 liters per hectare (L/ha). The concentrated stock solutions were further diluted with an aqueous mixture of 1.25% v/v ACTIROB® B or MSO® Concentrate with LECI-TECH® to obtain stock solutions at reduced application rates for each herbicide. Spray solutions of the herbicide combinations (Compound A or Compound B plus PROTOX inhibitor herbicide) were prepared by adding weighed amounts or aliquots of the PROTOX inhibitor herbicides to the stock solutions of Compound A or Compound B to form 12-mL spray solutions in two-way combinations.
(§7) The spray solutions were applied to the plant material with an overhead Mandel track sprayer equipped with 8002E nozzles calibrated to deliver 187 L/ha over an application area of 0.503 square meters (m^2) at a spray height of 18 inches (43 centimeters (cm)) above the average plant canopy. Control plants were sprayed in the same manner with the solvent blank. All pyridine carboxylate herbicide (component a) application rates are given as “g ae/ha” and all PROTOX inhibitor herbicide (component b) application rates are given as “g ai/ha.”
as §4

[7] = tested on: Capsella bursa-pastoris (shepherd's purse); test: Greenhouse postemergence herbicidal effect on CAPBP
From the text: as §1, §2, §3, §4

[8] = tested on: Lamium purpureum (purple deadnettle); test: Greenhouse postemergence herbicidal effect on LAMPU
From the text: as §1, §2, §3, §4

[9] = tested on: Cyanus segetum (cornflower); test: Greenhouse postemergence herbicidal effect on CENCY
From the text: as §1, §2, §3, §4

[10] = tested on: Triticum aestivum (spring wheat); test: Greenhouse postemergence phytotoxicity on crop TRZAS
From the text: as §1, §2, §6, §7, §4

[11] = tested on: Chenopodium album L. (common lambsquarters); test: Greenhouse postemergence herbicidal effect on CHEAL
From the text: as §1, §2, §6, §7, §4

[12] = tested on: Polygonum convolvulus (wild buckwheat); test: Greenhouse postemergence herbicidal effect on POLCO
From the text: as §1, §2, §6, §7, §4

[13] = tested on: Cirsium arvense (Canadian thistle); test: Greenhouse postemergence herbicidal effect on CIRAR
From the text: as §1, §2, §6, §7, §4

[14] = tested on: Veronica persica (Persian speedwell); test: Greenhouse postemergence herbicidal effect on VERPE
From the text: as §1, §2, §3, §4

[15] = tested on: Hordeum vulgare (winter barley); test: Greenhouse postemergence phytotoxicity on crop HORVW
From the text: as §1, §2, §3, §4

[16] = Compound A 7.5, Oxyfluorfen 0 g/ha
[17] = Compound A 10, Oxyfluorfen 0 g/ha
[18] = Compound A 15, Oxyfluorfen 0 g/ha
[19] = Compound A 7.5, Saflufenacil 0 g/ha
[20] = Compound A 10, Saflufenacil 0 g/ha
[21] = Compound A 7.5, Pyraflufen-ethyl 0 g/ha
[22] = Compound A 10, Pyraflufen-ethyl 0 g/ha
[23] = Compound A 7.5, Carfentrazone-ethyl 0 g/ha
[24] = Compound A 7.5, Pyraclonil 0 g/ha
[25] = Compound A 10, Carfentrazone-ethyl 0 g/ha
[26] = Compound A 10, Pyraclonil 0 g/ha

N#CCOC(=O)c1nc(-c2ccc3cc[nH]c3c2F)c(F)c(N)c1Cl [Compound A, cyanomethyl 4-amino-3-chloro-5-fluoro-6-(7-fluoro-1H-indol-6-yl)pyridine-2-carboxylate] was tested. Which “% visual injury, Obs” value [1, 16] did it give?
The value was 85%.

And the “% visual injury, Obs” value [1, 17]?
The value was 88%.

And the “% visual injury, Obs” value [1, 18]?
Its value is 89%.

And the “% visual injury, Obs” value [2, 19]?
Its value is 68%.

What about the “% visual injury, Obs” value [2, 20] of the same compound?
The value was 80%.

And the “% visual injury, Obs” value [3, 19]?
Its value is 0%.

What about the “% visual injury, Obs” value [3, 20] of the same compound?
Its value is 0%.

And the “% visual injury, Obs” value [4, 16]?
The value was 68%.

And the “% visual injury, Obs” value [4, 17]?
The value was 73%.

What about the “% visual injury, Obs” value [4, 18] of the same compound?
The value was 75%.

And the “% visual injury, Obs” value [5, 16]?
Its value is 20%.

What about the “% visual injury, Obs” value [5, 17] of the same compound?
The value was 20%.

What about the “% visual injury, Obs” value [5, 18] of the same compound?
Its value is 63%.

What about the “% visual injury, Obs” value [6, 16] of the same compound?
Its value is 23%.

What about the “% visual injury, Obs” value [6, 21] of the same compound?
The value was 10%.

What about the “% visual injury, Obs” value [6, 17] of the same compound?
Its value is 35%.

And the “% visual injury, Obs” value [6, 22]?
The value was 20%.

What about the “% visual injury, Obs” value [6, 18] of the same compound?
The value was 45%.

And the “% visual injury, Obs” value [7, 16]?
The value was 45%.

What about the “% visual injury, Obs” value [7, 17] of the same compound?
The value was 55%.

And the “% visual injury, Obs” value [7, 18]?
Its value is 55%.

And the “% visual injury, Obs” value [8, 16]?
Its value is 68%.

And the “% visual injury, Obs” value [8, 17]?
Its value is 73%.

What about the “% visual injury, Obs” value [8, 18] of the same compound?
The value was 73%.

And the “% visual injury, Obs” value [9, 16]?
Its value is 75%.

And the “% visual injury, Obs” value [9, 17]?
The value was 78%.

What about the “% visual injury, Obs” value [9, 18] of the same compound?
Its value is 80%.

What about the “% visual injury, Obs” value [10, 23] of the same compound?
The value was 0%.

What about the “% visual injury, Obs” value [10, 16] of the same compound?
The value was 0%.

What about the “% visual injury, Obs” value [10, 24] of the same compound?
The value was 0%.

And the “% visual injury, Obs” value [10, 21]?
Its value is 0%.

And the “% visual injury, Obs” value [10, 19]?
The value was 5%.

And the “% visual injury, Obs” value [10, 25]?
Its value is 0%.

What about the “% visual injury, Obs” value [10, 17] of the same compound?
Its value is 0%.

And the “% visual injury, Obs” value [10, 26]?
Its value is 0%.

What about the “% visual injury, Obs” value [10, 22] of the same compound?
The value was 0%.

What about the “% visual injury, Obs” value [10, 20] of the same compound?
Its value is 3%.

And the “% visual injury, Obs” value [10, 18]?
Its value is 0%.

What about the “% visual injury, Obs” value [11, 24] of the same compound?
The value was 70%.

And the “% visual injury, Obs” value [11, 21]?
The value was 75%.

What about the “% visual injury, Obs” value [11, 26] of the same compound?
Its value is 83%.

What about the “% visual injury, Obs” value [11, 22] of the same compound?
The value was 80%.

And the “% visual injury, Obs” value [12, 23]?
Its value is 70%.

What about the “% visual injury, Obs” value [12, 16] of the same compound?
The value was 65%.

What about the “% visual injury, Obs” value [12, 24] of the same compound?
Its value is 70%.

And the “% visual injury, Obs” value [12, 21]?
The value was 30%.

And the “% visual injury, Obs” value [12, 25]?
The value was 78%.

What about the “% visual injury, Obs” value [12, 17] of the same compound?
The value was 78%.

And the “% visual injury, Obs” value [12, 26]?
Its value is 78%.

What about the “% visual injury, Obs” value [12, 22] of the same compound?
The value was 43%.

What about the “% visual injury, Obs” value [12, 18] of the same compound?
The value was 85%.

What about the “% visual injury, Obs” value ([13]; Compound A 7.5, Bifenox 0 g/ha) of the same compound?
The value was 70%.

And the “% visual injury, Obs” value [13, 16]?
The value was 50%.

And the “% visual injury, Obs” value [13, 21]?
Its value is 40%.

What about the “% visual injury, Obs” value ([13]; Compound A 10, Bifenox 0 g/ha) of the same compound?
The value was 68%.

What about the “% visual injury, Obs” value [13, 17] of the same compound?
Its value is 63%.

What about the “% visual injury, Obs” value [13, 22] of the same compound?
The value was 55%.

What about the “% visual injury, Obs” value [13, 18] of the same compound?
Its value is 63%.

And the “% visual injury, Obs” value [14, 16]?
The value was 78%.

And the “% visual injury, Obs” value [14, 17]?
Its value is 90%.

And the “% visual injury, Obs” value [14, 18]?
Its value is 93%.

And the “% visual injury, Obs” value [15, 16]?
Its value is 0%.

And the “% visual injury, Obs” value [15, 17]?
The value was 0%.

And the “% visual injury, Obs” value [15, 18]?
Its value is 0%.

Source: patent publication US12465050B2, “Compositions comprising a pyridine carboxylate herbicide and protoporphyrinogen oxidase (protox) inhibitor herbicides” (priority 2018, dated 2025)
